Source: publication PMC10923054, “Antiplasmodial peptaibols act through membrane directed mechanisms” (Cell Chemical Biology, 2024)
Where two headings read alike, the source gives them in different places. Square brackets hold non-standard residues; d marks the D form. Peptide text beside a SMILES is read from it. Leu(ol) = CC(C)C[C@H](N)CO; dIva = CC[C@@](C)(N)C(=O)O; Aib = CC(C)(N)C(=O)O

Tests used:
[1] = test system: P. falciparum 3D7 transcriptome; assay: RNASeq analysis of treated culture; assay type: cell-based; conditions: 3D7, 1 h, EC50 concentration, vs vehicle
Procedure: P. falciparum 3D7 culture was synchronized as previously described[64] by combination of MACS column (Mitenyi Biotic, Auburn, CA)[65] and 5% sorbitol.[66] In brief, asynchronous culture with a majority ring stage population was centrifuged, pelleted, and resuspended in 5% sorbitol and incubated at room temp for 10 min. Parasites were then washed with culture media and returned to the culture incubator. For MACS column, columns were rinsed once with RPMI prior to parasite addition. After flow-through was complete, parasites on the column were eluted onto culture plates and returned to the culture incubator. […] RNA was then extracted using Direct-zol™ RNA Miniprep Plus (Zymo Research Corporation, Irvine, CA.) following manufacturers protocols. In brief, culture was lysed with 0.1% saponin and incubated for 5 min prior to centrifuging at 900 x g for 6 min at 4°C. Cells were washed once with RPMI then once with PBS before resuspension in triazole reagent. Samples were mixed vigorously for 5 min, centrifuged at 16,000 x g for 1 min, then transferred to a RNase free tube, and an equal volume of EtOH was added. After mixing, sample was loaded onto column and centrifuged at 16,000 x g for 30 sec then washed with pre-wash buffer. Columns were incubated with DNase buffer for 15 min then washed with pre-wash buffer. Two more wash steps were performed before allowing any excess EtOH to dry for 2 min. Finally, columns were transferred to a new RNase free tube in which RNA was eluted with RNase free water.
Preliminary integrity and concentration determination was performed via nanodrop and RNA gel electrophoresis, prior to a full integrity check via Agilent Technologies 2100 Bioanalyzer. After rRNA depletion, RNA fragmentation was performed using elevated temperatures and divalent cation buffers. Library preparation was done using the Illumina TruSeq-stranded-total-RNA-sample preparation protocol, with Agilent Technologies 2100 Bioanalyzer High Sensitivity DNA Chip for quality control, and Illumina’s NovaSeq 6000 sequencing system for paired-ended sequencing. For transcript assembly, Cutadapt[71] and LC Sciences in house perl scripts were used to remove low quality or undetermined bases and reads, along with adaptor contamination. Sequence quality was then confirmed using FastQC.[72] Reads were mapped to the P. falciparum genome using Bowtie2[73] and HISAT2,[74] then assembled using StringTie.[75] To assist in the filtering process, the transcriptomes from HZ NPDG-I and the vehicle control were assembled simultaneously to construct a merged transcriptome using perl scripts and gffcompare.[76] Finally, StringTie[75] and edgeR[77] were used to estimate transcript expression levels by calculating FPKM using the following equation: FPKM=totalexonfragments/mappedreads(millions)xexonlength(kB)
To calculate p value, a parametric F-test comparing nested linear models was performed using edgeR.[77] The q-values were also calculated using a Benjamini-Hochberg procedure. Differential expression for mRNA was calculated at the gene level (all transcript isoforms grouped as 1 gene) and the transcript level (all transcript isoforms ranked individually). […] The coding potential of the remaining transcripts was then determined using CPC[78] and CNCI,[79] and transcripts with a CPC score <0.5 and/or CNCI score <0 were removed. […] The predicted cis-targets of the novel lncRNAs were then determined for the coding genes 100,000 bp upstream and downstream with perl script. […]

[2] = test system: Dd2-B2; assay type: cell-based, P. falciparum
Procedure: Screening of HZ NPDG-I resistant clones was performed at 1% parasitemia, 0.2% hematocrit with flow cytometry in V-shaped 96-well plates. Briefly, compounds were subjected to a 3-fold serial dilution with the highest concentration set at 4 μM or 8 μM. Eleven dilution points were included in addition to no-drug controls. Three technical replicates were set up for each compound at each dilution point. The Dd2-B2 parent line, or the clonal line 1B2, 2B3, 3A3, or 1E2 were added at 0.4% hematocrit and 1% parasitemia to the diluted compounds at a 1:1 ratio. The plate was incubated at 37°C for 72 h in a chamber filled with a hypoxic gas mixture (3% oxygen, 5% carbon dioxide, and 92% nitrogen). After incubation, a blood pellet was formed at the bottom of each well of the 96-well plate. Supernatant was removed without disturbing the pellet, and 20 μl of SYTO 61(1:10,000 dilution; Thermo Fisher Scientific, Cat No. S11343) in PBS was added to each well and incubated for 15 mins at room temperature. The cells in each well were then diluted with 180 μl of PBS and subjected to flow cytometry for parasitemia determination using the HTS (High-Throughput Sampler) of BD FACSCanto II (BD Biosciences, NJ). Flow cytometry data was analyzed using FlowJo Version 10.4.0. Dose response curves were generated and IC50 values obtained with GraphPad Prism Version 9.1.1.
A clone of the Dd2 strain (Dd2-B2) of P. falciparum was used for in vitro evolution of resistance against harzianin NPDG I. Three flasks of 1.2 x 10^8 parasites were continuously exposed to a stepwise-increasing concentration of the compound over ∼3 months starting from 20 nM up to a final concentration of 100 nM. Once a stable rightward shift in 72 h IC50 was observed, cultures were subjected to limiting dilution to obtained harzianin-resistant clones. Each clone was expanded, phenotyped to confirm resistance, and submitted for whole genome sequencing. An untreated flask of Dd2-B2 parasites was maintained in parallel throughout the course of in vitro selection as a control.

**Q.** With `CC[C@H](C)[C@H](NC(=O)[C@H](CC(C)C)NC(=O)[C@H](CCC(N)=O)NC(=O)[C@@](C)(CC)NC(C)=O)C(=O)NC(C)(C)C(=O)N1CCC[C@H]1C(=O)N[C@](C)(CC)C(=O)N[C@@H](CC(C)C)C(=O)NC(C)(C)C(=O)N1CCC[C@H]1C(=O)N[C@H](CO)CC(C)C` [HZ NPDG-I, harzianin NPDG I] (Ac-[dIva]QLI[Aib]P[dIva]L[Aib]P[Leu(ol)]) as the compound, how does the “RNA-seq log2fc, PF3D7_0106100” value [1] read?
**A.** Its value is −1.35.

**Q.** And the “RNA-seq log2fc, PF3D7_0519200.1” value [1]?
**A.** Its value is −5.06.

**Q.** What about the “RNA-seq log2fc, PF37D_1419800.1” value [1] of the same compound?
**A.** Its value is −3.23.

**Q.** And the “RNA-seq log2fc, lncRNA MSTRG.194.1” value [1]?
**A.** Its value is 16.51.

**Q.** And the “RNA-seq log2fc, lncRNA MSTRG.363.2” value [1]?
**A.** The value was 14.54.

**Q.** What about the IC50 ([2]; flask 1, read-out: IC50, Dd2-B2 parent) of the same compound?
**A.** The IC50 was 0.0536 nM.

**Q.** And the IC50 ([2]; flask 2, read-out: IC50, Dd2-B2 parent)?
**A.** Its IC50 is 0.0222 nM.

**Q.** What about the IC50 ([2]; flask 3, read-out: IC50, DD2-B2 parent) of the same compound?
**A.** Its IC50 is 0.0437 nM.
